According to article PMC5934486, “Pheromone Binding Protein EhipPBP1 Is Highly Enriched in the Male Antennae of the Seabuckthorn Carpenterworm and Is Binding to Sex Pheromone Components” (Frontiers in Physiology, 2018):

Experiments:
recombinant EhipPBP1 [1] = target: T1, recombinant EhipPBP1 (Eogystia hippophaecolus, UniProt A0A1B3P5J8); test: Binding of the fluorescent probe 1-NPN to EhipPBP1 (Scatchard analysis); conditions: Scatchard method; 2 μM EhipPBP1, 1-NPN 2–20 μM, pH 7.4; read-out: dissociation constant (K1-NPN)
Method: N-phenyl-1-naphthylamine (1-NPN) was selected for use as a selectively fluorescent probe to measure the affinity of ligand binding to recombinant EhipPBP1 ([Yin et al., 2012]; [Zhong et al., 2012]). Seven pheromone and analog compounds were a gift from Professor Zhang Jintong of Shanxi Agricultural University (Table 1) and were >97% pure. A fluorescence binding assay was performed on a multiscan Spectrum Molecular Device SpectraMax i3 (Thermo Scientific, Wilmington, DE, United States) with an excitation wavelength of 337 nm and recording of emission spectra between 380 and 520 nm. Parameter selection was such that the slit widths for both excitation and emission were 10 nm. Spectra were recorded using high-speed scanning. 2 μM solution of EhipPBP1 was prepared in 20 mM Tris-HCl buffer (pH 7.4), and the ligands were dissolved in chromatographically pure methanol as 1 mM stock solutions. The affinity of EhipPBP1 for the labeled probe was determined by adding aliquots of 1-NPN stock solution to give final concentrations of 2–20 μM. […] To determine dissociation constants, intensity values corresponding to maximum fluorescence emission were plotted against free ligand concentrations. Assuming that the protein was 100% active and that the stoichiometric ratio between protein and ligand was 1:1 at saturation, the bound ligand was determined from the fluorescence intensity values. […]

recombinant EhipPBP1 [2] = target: T1, recombinant EhipPBP1; test: Fluorescence competitive binding assay with 1-NPN as probe; conditions: for inhibition: 1-NPN and EhipPBP1 both at 2 μM, read-out: Highest combined rate (%); for inhibition / IC50: pH 7.4; for IC50: concentration of competitor causing 50% reduction of 1-NPN fluorescence, 1-NPN and EhipPBP1 at 2 μM
Method: N-phenyl-1-naphthylamine (1-NPN) was selected for use as a selectively fluorescent probe to measure the affinity of ligand binding to recombinant EhipPBP1 ([Yin et al., 2012]; [Zhong et al., 2012]). Seven pheromone and analog compounds were a gift from Professor Zhang Jintong of Shanxi Agricultural University (Table 1) and were >97% pure. A fluorescence binding assay was performed on a multiscan Spectrum Molecular Device SpectraMax i3 (Thermo Scientific, Wilmington, DE, United States) with an excitation wavelength of 337 nm and recording of emission spectra between 380 and 520 nm. Parameter selection was such that the slit widths for both excitation and emission were 10 nm. Spectra were recorded using high-speed scanning. 2 μM solution of EhipPBP1 was prepared in 20 mM Tris-HCl buffer (pH 7.4), and the ligands were dissolved in chromatographically pure methanol as 1 mM stock solutions. The affinity of EhipPBP1 for the labeled probe was determined by adding aliquots of 1-NPN stock solution to give final concentrations of 2–20 μM. […] To determine dissociation constants, intensity values corresponding to maximum fluorescence emission were plotted against free ligand concentrations. Assuming that the protein was 100% active and that the stoichiometric ratio between protein and ligand was 1:1 at saturation, the bound ligand was determined from the fluorescence intensity values. EhipPBP1 binding with every component was replicated six times. The curves were then linearized using Scatchard plots to calculate K1-NPN values. Dissociation constants of the competitors (Ki) were calculated from the corresponding IC50 values by the following equation: Ki = [IC50]/(1 + [1–NPN]/K1-NPN), where [IC50] was the concentration of a competitor that caused a 50% reduction in the fluorescence intensity, [1–NPN] represented the free concentration of 1–NPN, and K1-NPN represented the dissociation constant of the complex of protein with 1–NPN ([Campanacci et al., 2001]).

[3] = calculated Kd values in competitive binding assays with 1-NPN
[4] = calculated from IC50 by Ki = [IC50]/(1 + [1-NPN]/K1-NPN), Table 1

T1 sequence (A0A1B3P5J8 entry or part of it): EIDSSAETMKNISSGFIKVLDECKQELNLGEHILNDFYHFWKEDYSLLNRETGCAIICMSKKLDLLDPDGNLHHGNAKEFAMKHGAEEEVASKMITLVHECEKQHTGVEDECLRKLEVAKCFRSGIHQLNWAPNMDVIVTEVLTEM

SMILES: c1ccc(Nc2cccc3ccccc23)cc1 [1-NPN, N-phenyl-1-naphthylamine]
- Kd (recombinant EhipPBP1 [1]): 3.7 ± 0.06 µM

SMILES: CCCCCCCCCC/C=C/CCOC(C)=O [E3-14:Ac, (E)-3-tetradecenyl acetate]
- inhibition (recombinant EhipPBP1 [2]; competitor 2–20 μM): 89.4%
- Kd (recombinant EhipPBP1 [2]; [3]): 1.58 ± 0.21 µM
- Kd (recombinant EhipPBP1 [2]; [4]): 1.57 ± 0.21 µM
- IC50 (recombinant EhipPBP1 [2]): 2 µM

SMILES: CCCC/C=C/CCCCCCCCOC(C)=O [E9-14:Ac]
- inhibition (recombinant EhipPBP1 [2]; competitor 2–20 μM): 53.1%
- Kd (recombinant EhipPBP1 [2]; [3]): 6.3 ± 0.52 µM
- Kd (recombinant EhipPBP1 [2]; [4]): 6.3 ± 0.521 µM
- IC50 (recombinant EhipPBP1 [2]): 8 µM

SMILES: CCCCCCCCCC/C=C\CCOC(C)=O [Z3-14:Ac]
- binding to EhipPBP1 (result in words) (recombinant EhipPBP1 [2]; competitor 2–20 μM): No binding was detected

SMILES: CCCCCCCCCCC=CCCO [Z3-14:OH]
- inhibition (recombinant EhipPBP1 [2]; competitor 2–20 μM): 56.5%
- Kd (recombinant EhipPBP1 [2]; [3]): 2.36 ± 0.2 µM
- Kd (recombinant EhipPBP1 [2]; [4]): 2.36 ± 0.201 µM
- IC50 (recombinant EhipPBP1 [2]): 3 µM

SMILES: CCCCCC/C=C\CCCCCCOC(C)=O [Z7-14:Ac, (Z)-7-tetradecenyl acetate]
- inhibition (recombinant EhipPBP1 [2]; competitor 2–20 μM): 86.4%
- Kd (recombinant EhipPBP1 [2]; [3]): 1.18 ± 0.01 µM
- Kd (recombinant EhipPBP1 [2]; [4]): 1.18 ± 0.012 µM
- IC50 (recombinant EhipPBP1 [2]): 1.5 µM

SMILES: CCCCCCC=CCCCCCCO [Z7-14:OH]
- inhibition (recombinant EhipPBP1 [2]; competitor 2–20 μM): 62.3%
- Kd (recombinant EhipPBP1 [2]; [4]): 3.15 ± 0.321 µM
- IC50 (recombinant EhipPBP1 [2]): 4 µM

SMILES: CCCCC=CCCCCCCCCOC(C)=O [Z9-14:Ac]
- inhibition (recombinant EhipPBP1 [2]; competitor 2–20 μM): 37.9%
- binding in the range of test concentrations (recombinant EhipPBP1 [2]; competitor 2–20 μM, Kd could not be calculated): < 50%
